Test results from patent US10954252B1, “Inhibitors of human immunodeficiency virus replication” (ViiV HEALTHCARE UK (NO.5) LIMITED, priority 2017, dated 2021).

Tests used:
[1] = test system: recombinant NL4-3 virus (nef section replaced with Renilla luciferase gene) in MT-2 cells; assay: HIV cell culture assay (antiviral activity, luciferase readout); format: cell-based; conditions: Renilla, MT-2 cells infected for 4-5 days with recombinant NL4-3 luciferase virus
Procedure, shortened: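 NL4-3 reporter virus carrying Renilla luciferase in place of part of nef, produced in 293T cells, was used to infect MT-2 cells for 4-5 days with serial compound dilutions. Luciferase activity was read with a live-cell substrate; EC50 derived from the median effect equation.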

[2] = Compound cytotoxicity, XTT-based colorimetric assay; format: cell-based; conditions: human, uninfected MT2 cells
Procedure, shortened: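 CC50 from uninfected MT2 cells run under the antiviral-assay protocol without virus. Viability read on day 4 by XTT colorimetric assay.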

Compound	EC50 ([1]; NL43, Table 1) [nM]	CC50 at 4 days ([2]; Table 1, day 4, XTT) [µM]	EC50 ([1]; NL43, Table 1a) [nM]	CC50 at 4 days ([2]; Table 1a, day 4, XTT) [µM]
Cn1nc(NS(C)(=O)=O)c2c(Cl)ccc(-n3c([C@H](Cc4cc(F)cc(F)c4)NC(=O)Cn4nc(C(F)F)c5c4C(F)(F)[C@@H]4C[C@H]54)nc4cc(F)ccc4c3=O)c21 [Example 18, N—((S)-1-(3-(4-chloro-1-methyl-3-(methylsulfonamido)-1H-indazol-7-yl)-7-fluoro-4-oxo-3,4-dihydroquinazolin-2-yl)-2-(3,5-difluorophenyl)ethyl)-2-((3bS,4aR)-3-(difluoromethyl)-5,5-difluoro-3b,4,4a,5-tetrahydro-1H-cyclopropa[3,4]cyclopenta[1,2-c]pyrazol-1-yl)acetamide]	36	> 10		
CN1Cc2ccc(-c3cc4[nH]ncc4nc3[C@H](Cc3cc(F)cc(F)c3)NC(=O)Cn3nc(C(F)F)c4c3C(F)(F)[C@@H]3C[C@H]43)cc2C1=O [Example 23, 2-((3bS,4aR)-3-(difluoromethyl)-5,5-difluoro-3b,4,4a,5-tetrahydro-1H-cyclopropa[3,4]cyclopenta[1,2-c]pyrazol-1-yl)-N—((S)-2-(3,5-difluorophenyl)-1-(6-(2-methyl-3-oxoisoindolin-5-yl)-1H-pyrazolo[4,3-b]pyridin-5-yl)ethyl)acetamide]			21.8	10
NS(=O)(=O)c1ccc(-c2cc3[nH]ncc3nc2[C@H](Cc2cc(F)cc(F)c2)NC(=O)Cn2nc(C(F)F)c3c2C(F)(F)[C@@H]2C[C@H]32)cc1 [Example 24, 2-((3bS,4aR)-3-(difluoromethyl)-5,5-difluoro-3b,4,4a,5-tetrahydro-1H-cyclopropa[3,4]cyclopenta[1,2-c]pyrazol-1-yl)-N—((S)-2-(3,5-difluorophenyl)-1-(6-(4-sulfamoylphenyl)-1H-pyrazolo[4,3-b]pyridin-5-yl)ethyl)acetamide]			1370	> 10
O=C(Cn1nc(C(F)F)c2c1C(F)(F)[C@@H]1C[C@H]21)N[C@@H](Cc1cc(F)cc(F)c1)c1nc2cn[nH]c2cc1-c1ccc(S(=O)(=O)N2CCOCC2)cc1 [Example 25, 2-((3bS,4aR)-3-(difluoromethyl)-5,5-difluoro-3b,4,4a,5-tetrahydro-1H-cyclopropa[3,4]cyclopenta[1,2-c]pyrazol-1-yl)-N—((S)-2-(3,5-difluorophenyl)-1-(6-(4-(morpholinosulfonyl)phenyl)-1H-pyrazolo[4,3-b]pyridin-5-yl)ethyl)acetamide]			5.78	7.94
CN(C)S(=O)(=O)c1ccc(-c2cc3[nH]ncc3nc2[C@H](Cc2cc(F)cc(F)c2)NC(=O)Cn2nc(C(F)F)c3c2C(F)(F)[C@@H]2C[C@H]32)cc1 [Example 26, 2-((3bS,4aR)-3-(difluoromethyl)-5,5-difluoro-3b,4,4a,5-tetrahydro-1H-cyclopropa[3,4]cyclopenta[1,2-c]pyrazol-1-yl)-N—((S)-2-(3,5-difluorophenyl)-1-(6-(4-(N,N-dimethylsulfamoyl)phenyl)-1H-pyrazolo[4,3-b]pyridin-5-yl)ethyl)acetamide]			18.7	5.01
O=C(Cn1nc(C(F)F)c2c1C(F)(F)[C@@H]1C[C@H]21)N[C@@H](Cc1cc(F)cc(F)c1)c1nc2cn[nH]c2cc1-c1ccc(S(=O)(=O)N2CCSCC2)cc1 [Example 27, 2-((3bS,4aR)-3-(difluoromethyl)-5,5-difluoro-3b,4,4a,5-tetrahydro-1H-cyclopropa[3,4]cyclopenta[1,2-c]pyrazol-1-yl)-N—((S)-2-(3,5-difluorophenyl)-1-(6-(4-(thiomorpholinosulfonyl)phenyl)-1H-pyrazolo[4,3-b]pyridin-5-yl)ethyl)acetamide]			4.94	5.01
